Results reported in publication PMC7407272, “Induction of Lysosome Membrane Permeabilization as a Therapeutic Strategy to Target Pancreatic Cancer Stem Cells” (Cancers, 2020).

Columns and labels:
Assay in all cases: KINOMEscan
Format in all cases: binding
Conditions in all cases: read-out: % Ctrl
PHKG1 = target: T1, PHKG1 (Homo sapiens, UniProt Q16816)
T1 construct: purchased DiscoveRx KINOMEscan

JAK1(JH1D.-cat.) = target: T2, JAK1(JH1D.-cat.) (Homo sapiens, UniProt P23458)
T2 construct: JAK1(JH1D.-cat.); purchased DiscoveRx KINOMEscan
T2 sequence (P23458 875-1154 limits assumed): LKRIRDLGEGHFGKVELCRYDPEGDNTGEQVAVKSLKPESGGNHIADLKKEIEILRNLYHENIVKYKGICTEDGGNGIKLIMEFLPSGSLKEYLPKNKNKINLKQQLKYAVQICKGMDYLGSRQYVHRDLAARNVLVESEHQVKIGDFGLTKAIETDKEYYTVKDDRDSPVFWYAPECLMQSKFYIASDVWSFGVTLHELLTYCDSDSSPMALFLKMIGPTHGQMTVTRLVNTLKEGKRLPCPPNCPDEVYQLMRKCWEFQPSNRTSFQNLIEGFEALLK

CDK3 = target: T3, CDK3 (Homo sapiens, UniProt Q00526)
T3 construct: purchased DiscoveRx KINOMEscan

SNARK = target: T4, SNARK (Homo sapiens, UniProt Q9H093)
T4 construct: purchased DiscoveRx KINOMEscan

RSK4(KD1-N-t.) = target: T5, RSK4(KD1-N-t.) (Homo sapiens, UniProt Q9UK32)
T5 construct: RSK4(KD1-N-t.); purchased DiscoveRx KINOMEscan
T5 sequence (Q9UK32 1-400 limits assumed): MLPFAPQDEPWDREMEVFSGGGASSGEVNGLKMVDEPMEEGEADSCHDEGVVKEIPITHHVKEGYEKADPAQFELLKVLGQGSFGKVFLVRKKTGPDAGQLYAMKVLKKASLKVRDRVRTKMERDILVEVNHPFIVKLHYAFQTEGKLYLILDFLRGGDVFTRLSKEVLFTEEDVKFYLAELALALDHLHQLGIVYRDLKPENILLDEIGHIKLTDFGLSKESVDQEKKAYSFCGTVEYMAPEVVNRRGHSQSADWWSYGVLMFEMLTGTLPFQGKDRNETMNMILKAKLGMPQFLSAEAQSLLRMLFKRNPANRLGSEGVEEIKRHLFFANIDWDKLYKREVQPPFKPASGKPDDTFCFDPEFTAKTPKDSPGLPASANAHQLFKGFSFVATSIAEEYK

JAK1(JH2D.-pseudoK.) = target: T6, JAK1(JH2D.-pseudoK.) (Homo sapiens, UniProt P23458)
T6 construct: JAK1(JH2D.-pseudoK.); purchased DiscoveRx KINOMEscan

TAOK3 = target: T7, TAOK3 (Homo sapiens, UniProt Q9H2K8)
T7 construct: purchased DiscoveRx KINOMEscan

YSK4 = target: T8, YSK4 (Homo sapiens, UniProt Q56UN5)
T8 construct: purchased DiscoveRx KINOMEscan

HIPK1 = target: T9, HIPK1 (Homo sapiens, UniProt Q86Z02)
T9 construct: purchased DiscoveRx KINOMEscan
T9 sequence (Q86Z02 whole entry): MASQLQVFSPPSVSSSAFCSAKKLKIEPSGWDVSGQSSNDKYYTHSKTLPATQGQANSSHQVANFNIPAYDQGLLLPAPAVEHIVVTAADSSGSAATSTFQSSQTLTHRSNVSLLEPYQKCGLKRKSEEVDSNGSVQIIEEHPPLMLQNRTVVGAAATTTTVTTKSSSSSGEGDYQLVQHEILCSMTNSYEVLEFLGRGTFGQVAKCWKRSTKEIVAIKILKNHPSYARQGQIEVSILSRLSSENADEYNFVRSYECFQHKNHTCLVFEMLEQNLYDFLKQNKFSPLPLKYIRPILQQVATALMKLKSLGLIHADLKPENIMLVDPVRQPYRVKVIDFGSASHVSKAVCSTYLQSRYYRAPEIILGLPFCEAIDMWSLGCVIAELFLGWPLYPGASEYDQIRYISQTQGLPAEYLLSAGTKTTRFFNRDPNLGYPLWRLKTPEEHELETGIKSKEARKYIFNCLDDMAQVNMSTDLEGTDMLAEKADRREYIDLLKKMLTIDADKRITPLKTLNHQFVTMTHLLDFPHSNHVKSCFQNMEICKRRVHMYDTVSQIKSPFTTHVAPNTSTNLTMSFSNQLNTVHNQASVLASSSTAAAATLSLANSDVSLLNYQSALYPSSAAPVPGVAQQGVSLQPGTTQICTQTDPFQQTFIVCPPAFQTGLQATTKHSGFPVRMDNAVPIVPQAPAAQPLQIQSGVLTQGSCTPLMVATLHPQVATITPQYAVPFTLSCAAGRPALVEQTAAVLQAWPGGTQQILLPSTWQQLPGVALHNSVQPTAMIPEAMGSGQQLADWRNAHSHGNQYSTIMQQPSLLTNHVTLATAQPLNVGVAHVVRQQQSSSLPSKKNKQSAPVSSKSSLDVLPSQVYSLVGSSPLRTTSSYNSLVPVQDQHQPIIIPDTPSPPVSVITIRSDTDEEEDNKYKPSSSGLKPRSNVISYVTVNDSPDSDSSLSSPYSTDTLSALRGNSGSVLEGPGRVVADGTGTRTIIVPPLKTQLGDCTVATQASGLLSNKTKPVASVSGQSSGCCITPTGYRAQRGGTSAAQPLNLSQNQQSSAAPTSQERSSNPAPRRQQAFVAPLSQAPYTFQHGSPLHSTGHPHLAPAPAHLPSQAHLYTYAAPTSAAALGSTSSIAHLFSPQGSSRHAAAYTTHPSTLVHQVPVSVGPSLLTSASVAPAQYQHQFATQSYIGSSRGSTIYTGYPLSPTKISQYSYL

KIT(D816H) = target: T10, KIT(D816H) (Homo sapiens, UniProt P10721, D816H)
T10 construct: purchased DiscoveRx KINOMEscan

AXL = target: T11, AXL (Homo sapiens, UniProt P30530)
T11 construct: purchased DiscoveRx KINOMEscan

MAK = target: T12, MAK (Homo sapiens, UniProt P20794)
T12 construct: purchased DiscoveRx KINOMEscan

BMPR1A = target: T13, BMPR1A (Homo sapiens, UniProt P36894)
T13 construct: purchased DiscoveRx KINOMEscan
T13 sequence (P36894 24-532): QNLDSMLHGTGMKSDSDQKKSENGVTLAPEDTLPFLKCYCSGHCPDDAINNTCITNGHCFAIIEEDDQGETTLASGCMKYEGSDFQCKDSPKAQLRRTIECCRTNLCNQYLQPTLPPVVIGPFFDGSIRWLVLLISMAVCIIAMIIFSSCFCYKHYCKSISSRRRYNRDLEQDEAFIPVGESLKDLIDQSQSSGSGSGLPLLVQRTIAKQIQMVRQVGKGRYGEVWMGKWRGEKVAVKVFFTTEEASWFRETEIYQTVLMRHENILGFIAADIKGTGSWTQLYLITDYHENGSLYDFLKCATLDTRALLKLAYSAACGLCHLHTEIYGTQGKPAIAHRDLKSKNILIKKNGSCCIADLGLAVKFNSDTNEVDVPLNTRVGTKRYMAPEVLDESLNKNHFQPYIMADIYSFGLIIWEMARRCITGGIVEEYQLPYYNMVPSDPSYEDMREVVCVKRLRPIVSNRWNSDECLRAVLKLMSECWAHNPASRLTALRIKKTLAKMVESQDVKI

CDC2L2 = target: T14, CDC2L2 (Homo sapiens, UniProt Q9UQ88)
T14 construct: purchased DiscoveRx KINOMEscan

PIP5K1A = target: T15, PIP5K1A (Homo sapiens, UniProt Q99755)
T15 construct: purchased DiscoveRx KINOMEscan

RIPK2 = target: T16, RIPK2 (Homo sapiens, UniProt O43353)
T16 construct: purchased DiscoveRx KINOMEscan

WNK1 = target: T17, WNK1 (Homo sapiens, UniProt Q9H4A3)
T17 construct: purchased DiscoveRx KINOMEscan

TIE2 = target: T18, TIE2 (Homo sapiens, UniProt Q02763)
T18 construct: purchased DiscoveRx KINOMEscan

MEK2 = target: T19, MEK2 (Homo sapiens, UniProt P36507)
T19 construct: purchased DiscoveRx KINOMEscan

DYRK2 = target: T20, DYRK2 (Homo sapiens, UniProt Q92630)
T20 construct: purchased DiscoveRx KINOMEscan

PRKD2 = target: T21, PRKD2 (Homo sapiens, UniProt Q9BZL6)
T21 construct: purchased DiscoveRx KINOMEscan

BRK = target: T22, BRK (Homo sapiens, UniProt Q13882)
T22 construct: purchased DiscoveRx KINOMEscan

CDK4-cyclinD3 = target: T23, CDK4-cyclinD3 (Homo sapiens, UniProt P11802)
T23 construct: purchased DiscoveRx KINOMEscan
T23 sequence (P11802 whole entry): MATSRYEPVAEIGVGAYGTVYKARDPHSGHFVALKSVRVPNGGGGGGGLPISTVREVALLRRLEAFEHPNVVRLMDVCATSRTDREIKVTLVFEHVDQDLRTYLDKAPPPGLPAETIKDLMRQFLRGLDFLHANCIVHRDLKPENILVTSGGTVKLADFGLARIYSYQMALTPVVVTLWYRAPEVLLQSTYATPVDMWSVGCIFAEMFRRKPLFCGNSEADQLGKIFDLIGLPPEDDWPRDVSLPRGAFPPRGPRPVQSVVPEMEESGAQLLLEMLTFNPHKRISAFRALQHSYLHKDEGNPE
T23 sequence (P30281 whole entry partner): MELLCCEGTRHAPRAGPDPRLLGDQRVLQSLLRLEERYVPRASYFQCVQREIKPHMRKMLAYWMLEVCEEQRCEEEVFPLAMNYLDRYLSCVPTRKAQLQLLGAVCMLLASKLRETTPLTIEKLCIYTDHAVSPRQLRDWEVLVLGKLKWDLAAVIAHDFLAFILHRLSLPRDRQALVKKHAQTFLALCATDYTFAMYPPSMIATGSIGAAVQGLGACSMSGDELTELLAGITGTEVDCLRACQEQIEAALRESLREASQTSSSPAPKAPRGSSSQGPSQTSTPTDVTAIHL

MET = target: T24, MET (Homo sapiens, UniProt P08581)
T24 construct: purchased DiscoveRx KINOMEscan

WEE2 = target: T25, WEE2 (Homo sapiens, UniProt P0C1S8)
T25 construct: purchased DiscoveRx KINOMEscan

CDK8 = target: T26, CDK8 (Homo sapiens, UniProt P49336)
T26 construct: purchased DiscoveRx KINOMEscan

WNK3 = target: T27, WNK3 (Homo sapiens, UniProt Q9BYP7)
T27 construct: purchased DiscoveRx KINOMEscan

SRPK3 = target: T28, SRPK3 (Homo sapiens, UniProt Q9UPE1)
T28 construct: purchased DiscoveRx KINOMEscan
T28 sequence (Q9UPE1 whole entry): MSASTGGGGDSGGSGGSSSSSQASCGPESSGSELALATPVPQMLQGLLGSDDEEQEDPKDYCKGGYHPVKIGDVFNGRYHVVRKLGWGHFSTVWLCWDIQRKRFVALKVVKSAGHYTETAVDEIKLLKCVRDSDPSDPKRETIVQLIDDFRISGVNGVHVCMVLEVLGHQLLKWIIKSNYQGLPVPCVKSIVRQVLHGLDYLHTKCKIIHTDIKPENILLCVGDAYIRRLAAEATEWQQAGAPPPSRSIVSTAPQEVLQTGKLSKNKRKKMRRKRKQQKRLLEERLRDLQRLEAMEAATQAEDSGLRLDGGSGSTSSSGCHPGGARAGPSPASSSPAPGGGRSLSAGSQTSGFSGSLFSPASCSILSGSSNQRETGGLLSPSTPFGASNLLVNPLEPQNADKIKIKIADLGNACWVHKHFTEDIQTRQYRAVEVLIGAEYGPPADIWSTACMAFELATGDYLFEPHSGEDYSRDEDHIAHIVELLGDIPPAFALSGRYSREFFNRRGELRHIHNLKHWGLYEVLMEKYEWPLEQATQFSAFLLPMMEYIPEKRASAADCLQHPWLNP

GRK1 = target: T29, GRK1 (Homo sapiens, UniProt Q15835)
T29 construct: purchased DiscoveRx KINOMEscan

MAP4K2 = target: T30, MAP4K2 (Homo sapiens, UniProt Q12851)
T30 construct: purchased DiscoveRx KINOMEscan

MET(M1250T) = target: T31, MET(M1250T) (Homo sapiens, UniProt P08581, M1250T)
T31 construct: purchased DiscoveRx KINOMEscan

FGFR1 = target: T32, FGFR1 (Homo sapiens, UniProt P11362)
T32 construct: purchased DiscoveRx KINOMEscan
T32 sequence (P11362 22-822): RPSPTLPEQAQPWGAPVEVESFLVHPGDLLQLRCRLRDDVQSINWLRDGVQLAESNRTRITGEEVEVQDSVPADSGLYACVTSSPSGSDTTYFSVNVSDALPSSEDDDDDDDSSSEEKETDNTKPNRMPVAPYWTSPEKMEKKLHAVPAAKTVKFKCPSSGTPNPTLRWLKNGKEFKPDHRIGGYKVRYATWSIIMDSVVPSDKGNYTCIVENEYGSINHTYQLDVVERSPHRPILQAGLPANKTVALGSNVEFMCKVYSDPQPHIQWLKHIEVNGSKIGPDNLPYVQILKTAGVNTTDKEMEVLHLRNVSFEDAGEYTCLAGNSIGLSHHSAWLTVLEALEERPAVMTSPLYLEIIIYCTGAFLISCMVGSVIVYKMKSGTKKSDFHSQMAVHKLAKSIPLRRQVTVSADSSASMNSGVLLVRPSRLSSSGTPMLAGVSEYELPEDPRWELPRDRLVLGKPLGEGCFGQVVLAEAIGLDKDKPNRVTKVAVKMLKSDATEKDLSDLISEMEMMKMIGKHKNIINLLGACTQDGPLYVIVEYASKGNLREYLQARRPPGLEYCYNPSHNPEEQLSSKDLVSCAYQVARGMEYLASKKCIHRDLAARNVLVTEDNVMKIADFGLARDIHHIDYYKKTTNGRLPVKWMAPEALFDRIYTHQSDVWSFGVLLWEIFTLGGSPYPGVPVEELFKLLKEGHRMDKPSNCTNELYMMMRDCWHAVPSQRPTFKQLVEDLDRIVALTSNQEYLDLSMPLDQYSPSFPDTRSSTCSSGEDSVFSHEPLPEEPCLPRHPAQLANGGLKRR

SRMS = target: T33, SRMS (Homo sapiens, UniProt Q9H3Y6)
T33 construct: purchased DiscoveRx KINOMEscan

YANK1 = target: T34, YANK1 (Homo sapiens, UniProt Q8WU08)
T34 construct: purchased DiscoveRx KINOMEscan

NEK5 = target: T35, NEK5 (Homo sapiens, UniProt Q6P3R8)
T35 construct: purchased DiscoveRx KINOMEscan

[1] = target: T36, EGFR(L747-E749del, A750P) (Homo sapiens, UniProt P00533, A750P/DEL747-749)
T36 construct: purchased DiscoveRx KINOMEscan

PFTK1 = target: T37, PFTK1 (Homo sapiens, UniProt O94921)
T37 construct: purchased DiscoveRx KINOMEscan

PLK1 = target: T38, PLK1 (Homo sapiens, UniProt P53350)
T38 construct: purchased DiscoveRx KINOMEscan
T38 sequence (P53350 whole entry): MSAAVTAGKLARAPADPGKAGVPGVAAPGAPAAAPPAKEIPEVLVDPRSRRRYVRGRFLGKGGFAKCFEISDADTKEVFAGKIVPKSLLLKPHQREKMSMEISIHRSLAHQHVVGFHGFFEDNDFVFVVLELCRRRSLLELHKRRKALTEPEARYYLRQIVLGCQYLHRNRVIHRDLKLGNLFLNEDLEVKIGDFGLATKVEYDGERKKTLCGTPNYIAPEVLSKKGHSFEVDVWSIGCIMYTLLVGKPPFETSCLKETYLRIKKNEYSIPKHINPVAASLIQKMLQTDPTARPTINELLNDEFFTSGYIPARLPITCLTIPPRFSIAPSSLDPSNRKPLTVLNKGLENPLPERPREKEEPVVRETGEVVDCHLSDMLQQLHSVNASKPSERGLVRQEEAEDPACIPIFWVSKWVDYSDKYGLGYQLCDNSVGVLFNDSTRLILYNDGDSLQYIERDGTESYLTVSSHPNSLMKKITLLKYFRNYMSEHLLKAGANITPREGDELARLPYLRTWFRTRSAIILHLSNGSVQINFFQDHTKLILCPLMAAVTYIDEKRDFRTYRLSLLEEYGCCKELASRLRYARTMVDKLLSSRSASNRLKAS

ERBB3 = target: T39, ERBB3 (Homo sapiens, UniProt P21860)
T39 construct: purchased DiscoveRx KINOMEscan

PIK3CA(E545A) = target: T40, PIK3CA(E545A) (Homo sapiens, UniProt P42336, E545A)
T40 construct: purchased DiscoveRx KINOMEscan

PIK4CB = target: T41, PIK4CB (Homo sapiens, UniProt Q9UBF8)
T41 construct: purchased DiscoveRx KINOMEscan

RSK1(KD1-N-t.) = target: T42, RSK1(KD1-N-t.) (Homo sapiens, UniProt Q15418)
T42 construct: RSK1(KD1-N-t.); purchased DiscoveRx KINOMEscan

With `CN1CCC(CNc2ccc3ncc(C(=O)Nc4cccc(OC(F)(F)F)c4)n3n2)CC1` [Cpd 2] the remaining binding at 1 µM (PHKG1) was 100%, the remaining binding at 1 µM (JAK1(JH1D.-cat.)) was 100% and the remaining binding at 1 µM (CDK3) was 85%. For the same molecule, the remaining binding at 1 µM (SNARK) was 89%, the remaining binding at 1 µM (RSK4(KD1-N-t.)) was 92% and the remaining binding at 1 µM (JAK1(JH2D.-pseudoK.)) was 100%. For the same molecule, the remaining binding at 1 µM (TAOK3) was 99%, the remaining binding at 1 µM (YSK4) was 71% and the remaining binding at 1 µM (HIPK1) was 100%. For the same molecule, the remaining binding at 1 µM (KIT(D816H)) was 91%, the remaining binding at 1 µM (AXL) was 65% and the remaining binding at 1 µM (MAK) was 94%. The remaining binding at 1 µM (BMPR1A) was 97%, the remaining binding at 1 µM (CDC2L2) was 99% and the remaining binding at 1 µM (PIP5K1A) was 100%. It also gave a remaining binding at 1 µM (RIPK2) of 100%, a remaining binding at 1 µM (WNK1) of 100% and a remaining binding at 1 µM (TIE2) of 100%. It also gave a remaining binding at 1 µM (MEK2) of 90%, a remaining binding at 1 µM (DYRK2) of 86% and a remaining binding at 1 µM (PRKD2) of 87%. It also gave a remaining binding at 1 µM (BRK) of 99%, a remaining binding at 1 µM (CDK4-cyclinD3) of 100% and a remaining binding at 1 µM (MET) of 100%. For the same molecule, the remaining binding at 1 µM (WEE2) was 92%, the remaining binding at 1 µM (CDK8) was 58% and the remaining binding at 1 µM (WNK3) was 99%. The remaining binding at 1 µM (SRPK3) was 77%, the remaining binding at 1 µM (GRK1) was 86% and the remaining binding at 1 µM (MAP4K2) was 74%. For the same molecule, the remaining binding at 1 µM (MET(M1250T)) was 100%, the remaining binding at 1 µM (FGFR1) was 100% and the remaining binding at 1 µM (SRMS) was 87%. It also gave a remaining binding at 1 µM (YANK1) of 100%, a remaining binding at 1 µM (NEK5) of 98% and a remaining binding at 1 µM [1] of 84%. The remaining binding at 1 µM (PFTK1) was 97%, the remaining binding at 1 µM (PLK1) was 98% and the remaining binding at 1 µM (ERBB3) was 100%. It also gave a remaining binding at 1 µM (PIK3CA(E545A)) of 100%, a remaining binding at 1 µM (PIK4CB) of 99% and a remaining binding at 1 µM (RSK1(KD1-N-t.)) of 97%.
